According to PMC12196043, “In Vivo PK-PD and Drug–Drug Interaction Study of Dorzagliatin for the Management of PI3Kα Inhibitor-Induced Hyperglycemia” (Pharmaceuticals, 2025):
Converted amounts (≈) assume the structure as drawn. “And” between values parts separate entries of the source, which are not always exact repeats. Equal entries are not always repeated. Where two headings read alike, the source gives them in different places. Blank lines part the entries; values can stand above or below the compound they belong to.

Legend:
[1] = Plasma pharmacokinetics by LC-MS/MS in OVCAR3 xenograft tumor-bearing nude mice; assay type: in vivo, BALB/c nude mice; details: n = 3
Experimental: (§1) This study, approved by Fudan University Ethics Committee (protocol code: 201904008Z) on 26 April 2019, was conducted in compliance with AAALAC’s International Commission guidelines for laboratory animal evaluation and accreditation. A total of 36 female BALB/c nude mice (6–8 weeks old, weighing 18–20 g) were purchased from Charles River Laboratories (Pinghu, China). The OVCAR3 ovarian cancer cell line (ATCC® HTB-161™) was used to establish human xenografts. OVCAR3 cells (10 × 10^6) suspended in 0.2 mL of Matrigel were subcutaneously inoculated into the dorsal region of each mouse. Tumors were allowed to grow until reaching a volume of ~160 mm^3, typically around 30 days post-inoculation.
(§2) WX390 was prepared in Solvent-1, comprising dimethyl sulfoxide (DMSO): methylcellulose: water at a ratio of 1:1:98 (v/v/v). BYL719 and dorzagliatin were formulated in Solvent-2, consisting of Tween 80: water with 0.5% methylcellulose (MC) solution at a ratio of 0.2:99.8 (v/v). The treatment control was a combination of Solvent-1 and Solvent-2. The test compounds were administered orally as follows: WX390 at 0.2 mg/kg, BYL719 at 25 mg/kg, and dorzagliatin at 10 mg/kg, dissolved in their respective formulations. Due to ethical considerations regarding gavage volume the administration volume across all groups was standardized to 10 μL/g of body weight.
(§3) The experiment involved six treatment groups, each comprising six mice. The groups included: (i) vehicle control, (ii) WX390 (0.2 mg/kg), (iii) BYL719 (25 mg/kg), (iv) dorzagliatin (10 mg/kg), (v) WX390 (0.2 mg/kg) + dorzagliatin (10 mg/kg), and (vi) BYL719 (25 mg/kg) + dorzagliatin (10 mg/kg). All treatments were administered via oral gavage once daily for four weeks. In the combination group of PI3Ki and dorzagliatin, dorzagliatin was administered 30 min prior to PI3Ki.
Following the 4-week treatment period, all experimental groups were fasted 6 h before the last administration until the end of the experiment. Water was not restricted during the fasting period. Blood samples were collected at 0, 0.5, 1, 2, 4, and 8 h after administration. Each mouse had 3 blood collection points, with 50 μL of plasma collected at each point. Mice in each group were allocated to two cohorts: The first cohort underwent blood collection at 0, 1, and 2 h post-administration, while the second cohort was sampled at 0.5, 4, and 8 h post-administration. Terminal blood collection at the 2-h time point for the first cohort was performed via cardiac puncture following euthanasia, during which tumor tissues were concurrently harvested from this cohort. Blood samples were processed through centrifugation (4 °C, 1500× g for 10 min) for plasma separation. All plasma and tumor samples were immediately snap-frozen in liquid nitrogen and stored at −80 °C for subsequent analysis.
The extraction of WX390, BYL719, and dorzagliatin from plasma samples was performed using protein precipitation. Internal standards (IS) included SBL-D3, BNSL-D5, and PLPL-D8 for WX390, BYL719, and dorzagliatin, respectively. Plasma samples (20 μL) were mixed with 20 μL of zinc sulfate aqueous solution (0.1 mol/L) and 200 µL of a 50% methanol solution containing three internal standards followed by vortexing for 10 min. The samples were centrifuged at 4 °C (15,000× g for 5 min). The supernatant (180 μL) was transferred to a clean Eppendorf tube, and a 10 μL aliquot was injected into the LC-MS/MS system.
Chromatographic separations were performed using an AB SCIEX Jasper HPLC system coupled with an AB SCIEX Triple Quad 4500MD mass spectrometer (AB SCIEX, USA). A Phenomenex Kinetex C18 column (100 × 3 mm, 2.6 μm) was used at 40 °C. The flow rate was maintained at 0.4 mL/min with a total run time of 4 min. […]

[2] = set-up: method as in PMID 35551294; details: cited from earlier work
[3] = tested on: CYP1A2, 2A6, 2C9, 2C19, 2D6, 2E1, CYP3A4/5; set-up: method as in ref 32 = [32]; 32. Wang J. Zhao Z. Xu W. Hu X. Jin P. First Marketed Glucokinase Activator for Antidiabetic Therapy: Dorzagliatin Chin. Pharm. J. 2024 59 651 656; details: in vitro studies; cited from earlier work
[4] = tested on: P-gp; details: cited from earlier work
[5] = cited from earlier work
[6] = tested on: OVCAR3 xenograft tumor; assay: In vivo tumor growth, OVCAR3 subcutaneous xenograft tumor model; set-up: species or system BALB/c nude mice; details: n = 6; for T/C (Relative Tumor Growth Rate) / TGI (Tumor Growth Inhibition): based on tumor volume on day 28, vs vehicle; for Tumor Volume (Day 28): day 28 after administration, oral once daily, Dorz 10 mg/kg, WX390 0.2 mg/kg, BYL719 25 mg/kg, vehicle 1582 mm^3
Experimental: as §1, §2, §3
Tumor dimensions were measured biweekly using a vernier caliper. Tumor volume was calculated using the formula:(1) V=0.5a×b^2 where: • a represents the longest tumor diameter. • b represents the shortest diameter.
The antitumor efficacy of each group was evaluated using TGI or T/C. TGI (%) reflects the rate of tumor growth inhibition and is calculated as follows:(2) TGI%=1−Vend−V0exp/Vend−V0control×100% where: • Vend represents mean tumor volume at the end of treatment in the group. • V0 represents mean tumor volume at the start of treatment in the group. • exp represents the treated groups. • control represents the vehicle control group.
T/C (%) is calculated using the formula:(3) T/C%=TRTV/CRTV×100% where: • TRTV is the Relative Tumor Volume of the treatment group. • CRTV is the Relative Tumor Volume of the negative control group.
The Relative Tumor Volume (RTV) is calculated based on tumor measurement results using the formula:(4) RTV=Vt/V0 where: • V0 is the mean tumor volume at the time of grouping (day 0). • Vt is the mean tumor volume at a given measurement time.
TRTV and CRTV are based on data from the same day.
At the conclusion of the experiment, tumor weights were measured, and the T/C was calculated. Tweight and Cweight represent the tumor weights of the treatment group and the vehicle control group, respectively.

[7] = tested on: fasting plasma glucose (∆FPG); assay: PK/PD sigmoid Emax model of dorzagliatin plasma concentration vs ∆FPG; assay type: in vivo, BALB/c nude mice
Experimental: To further characterize the pharmacokinetics of the compounds, a two-compartment model with first-order absorption was developed using the Phoenix Model module in Phoenix software. The AIC method was applied to identify the most suitable pharmacokinetic model. This model facilitated the comprehensive evaluation of the pharmacokinetic behavior of the drugs under investigation.
To evaluate the effect of the test compounds on blood glucose levels, 10 μL of blood was collected from the tail veins of mice at baseline (time 0) and at predetermined time points (0.5, 1, 2, 4, 6, and 8 h) post-administration. Blood glucose levels were measured using a OneTouch Ultra glucometer. Changes in FPG levels over time were monitored and analyzed. ∆FPG was calculated using Equation (5):(5) ∆FPG=FPGcontrol−FPGexp/FPGcontrol×100% where: • FPGexp represents the FPG levels in the dorzagliatin group, dorzagliatin + WX390 group, or the dorzagliatin + BYL719 group. • FPGcontrol represents the FPG levels in the vehicle control group, WX390 group, or BYL719 group.
A preliminary PK/PD interaction model was developed using plasma concentrations and FPG levels in tumor-bearing mice. The relationship between plasma drug concentrations and FPG reduction was described using the Sigmoid Eₘₐₓ model (Equation (6)):(6) E=E0+Emax×Ce^γ/EC50γ+Ce^γ where: • E represents the mean percent blood glucose reduction. • Cₑ indicates the plasma concentration of the drug that elicits a pharmacodynamic response. • E0 is the baseline drug effect. • Eₘₐₓ represents the maximum potential drug effect. • EC50 is the plasma concentration at which 50% of the maximum drug effect is observed. • γ denotes the Hill coefficient, which reflects the steepness of the concentration-effect curve.

[8] = human, in vivo; cited from earlier work
[9] = cited from earlier work; remark: listed apart in the source
[10] = tested on: CYP3A4; set-up: method as in ref 31 = [31]; 31. FDA Label of PIQRAY® (Alpelisib) FDA Silver Spring, MD, USA 2019; details: repeated doses of 300 mg BYL719 with midazolam and other substrates, everolimus; cited from earlier work
[11] = major metabolite BZG791; CYP3A4 to a lesser extent; no reference given; cited from earlier work
[12] = Dorz 10 mg/kg measured in Dorz + BYL719 (25 mg/kg) group, oral
[13] = Dorz 10 mg/kg measured in Dorz + WX390 (0.2 mg/kg) group, oral
[14] = monotherapy group, plasma, oral gavage once daily for four weeks, Dorz 10 mg/kg, WX390 0.2 mg/kg, BYL719 25 mg/kg
[15] = co-administration with moderate CYP3A4 inhibitors such as verapamil, fluconazole, erythromycin
[16] = E = mean percent blood glucose reduction (∆FPG)
[17] = female, BALB/c nude, mouse, plasma, po, 25 mg/kg, PI3Ki measured in combination group with Dorz 10 mg/kg (given 30 min before), WX390 0.2 mg/kg or BYL719 25 mg/kg oral
[18] = female, BALB/c nude, mouse, plasma, po, 25 mg/kg, monotherapy group, plasma, oral gavage once daily for four weeks, Dorz 10 mg/kg, WX390 0.2 mg/kg, BYL719 25 mg/kg

- AUC0→t [1, 12]: 3953.58 ng·h/mL
- Cmax [1, 12]: 2013.33 ng/mL
- Tmax [1, 12]: 1.00 h
- t1/2 [1, 12]: 1.86 h
- AUC0→t [1, 13]: 4657.23 ng·h/mL
- Cmax [1, 13]: 1776.67 ng/mL
- Tmax [1, 13]: 0.50 h
- t1/2 [1, 13]: 2.93 h
- AUC0→t [1, 14]: 3287.90 ng·h/mL
- Cmax [1, 14]: 1331.00 ng/mL
- Tmax [1, 14]: 0.50 h
- t1/2 [1, 14]: 2.15 h
- EC50 (∆FPG as indicator) ([7]; dorzagliatin plasma concentration giving 50% of maximum effect, per treatment group): 0.74 µg/mL (≈ 1.6 µM)
Structure (SMILES): CC(C)C[C@@H](C(=O)Nc1ccn(C[C@@H](O)CO)n1)N1CC(Oc2ccccc2Cl)=CC1=O [Dorz, Dorzagliatin]
- patients with clinically significant hypoglycemic events (blood glucose < 54 mg/dL) ([2]; 24-week double-blind treatment period, 1 of 310 patients): 0.3%
- exposure-adjusted event rate for clinically significant hypoglycemia ([2]; 52-week observation period): 0.006 events per patient-year
- inhibition of CYP1A2, 2A6, 2C9, 2C19, 2D6, 2E1, CYP3A4/5 [3]: does not inhibit
- P-gp substrate status [4]: substrate of P-gp
- time to steady-state plasma pharmacokinetics ([5]; T2DM patients, twice-daily oral administration): ≤ 4 days
- AUCtau ([5]; after oral administration): 5570 ng·h/mL
- Cmax ([5]; after oral administration): 1090 ng/mL
- median Tmax ([5]; after oral administration): 1.31 h
- Metabolism [5]: primarily occurs in the liver via cytochrome P450 enzyme 3A4 (CYP3A4)
- fold increase in AUC0→t of dorzagliatin [5, 15]: 2.4 fold
- fold increase in Cmax of dorzagliatin [5, 15]: 1.2 fold
- mean apparent volume of distribution ([5]; single 50 mg oral dose, healthy subjects): 115 L
- T/C (Relative Tumor Growth Rate) [6]: 90.81%
- TGI (Tumor Growth Inhibition) [6]: 10.19%
- Tumor Volume (Day 28) [6]: 1437 ± 172 mm^3
- E0 (baseline drug effect) in PK/PD equation [7, 16]: 10
- Emax (maximum potential drug effect) in PK/PD equation [7, 16]: 50%
- Hill coefficient (γ) ([7]; ∆FPG, per treatment group): 0.80

- Tmax ([1]; PI3Ki measured in combination group with Dorz 10 mg/kg (given 30 min before), WX390 0.2 mg/kg or BYL719 25 mg/kg oral): 1.00 h
- AUC(0-t) [1, 17]: 24800 ng·h/mL
- half-life [1, 17]: 6.72 h
- Cmax ([1]; female, BALB/c nude, mouse, plasma, po, 25 mg/kg, PI3Ki measured in combination group with Dorz 10 mg/kg (given 30 min before), WX390 0.2 mg/kg or BYL719 25 mg/kg oral, read-out: Cmax): 4210 ng/mL
- AUC(0-t) [1, 18]: 29000 ng·h/mL
- half-life [1, 18]: 5.33 h
- Cmax ([1]; female, BALB/c nude, mouse, plasma, po, 25 mg/kg, monotherapy group, plasma, oral gavage once daily for four weeks, Dorz 10 mg/kg, WX390 0.2 mg/kg, BYL719 25 mg/kg, read-out: Cmax): 4790 ng/mL
- Tmax ([1]; female, BALB/c nude, mouse, monotherapy group, plasma, oral gavage once daily for four weeks, Dorz 10 mg/kg, WX390 0.2 mg/kg, BYL719 25 mg/kg, read-out: Tmax): 1 h
Structure (SMILES): Cc1nc(NC(=O)N2CCC[C@H]2C(N)=O)sc1-c1ccnc(C(C)(C)C(F)(F)F)c1 [BYL719, alpelisib]
- rate of hyperglycemia, any grade [8]: 63.7%
- rate of hyperglycemia, grades 3–4 [8]: 36.6%
- treatment discontinuation rate due to hyperglycemia [8]: 6.3%
- AUC0→24h ([9]; 300 mg/day): 33,224 ng·h/mL
- Cmax ([9]; 300 mg/day): 2480 ng/mL
- apparent volume of distribution [9]: 114 L
- clearance rate [9]: 9.2 L/h
- effect of food intake on pharmacokinetic profile [9]: does not significantly affect
- plasma protein binding rate [9]: 89%
- dose proportionality of exposure ([9]; fed conditions, doses 30 to 450 mg): increases proportionally
- P-gp inhibitor status [4]: P-gp inhibitor
- CYP3A4 inhibitor status [10]: not a CYP3A4 inhibitor
- T/C (Relative Tumor Growth Rate) [6]: 52.85%
- TGI (Tumor Growth Inhibition) [6]: 52.46%
- Tumor Volume (Day 28) [6]: 836 mm^3 and 836 ± 71 mm^3
- metabolic route (in vitro studies) [11]: primarily metabolized through chemical degradation and enzymatic hydrolysis
